Source: article PMC6407913, “DREADD Agonist 21 Is an Effective Agonist for Muscarinic-Based DREADDs in Vitro and in Vivo” (ACS Pharmacology & Translational Science, 2018)
Values joined by “and” are separate entries in the source; they are usually repeats but may differ in a detail not shown here. Equal values may be shown once.

Key:
Type in all cases: cell-based
[1] = biological target: T1, 318 nonolfactory human GPCRs (Homo sapiens, UniProt P32241); conditions: VIPR1; C21 5 µM
T1 construct: expressed in transfected cells; host or cells: HTLA cells, transient

[2] = biological target: 318 nonolfactory human GPCRs (Homo sapiens, UniProt P07550); conditions: ADRB2; C21 5 µM
[3] = biological target: 318 nonolfactory human GPCRs (Homo sapiens, UniProt P30989); conditions: NTSR1; C21 5 µM
[4] = biological target: 318 nonolfactory human GPCRs (Homo sapiens, UniProt P46093); conditions: GPR4; C21 5 µM
[5] = biological target: T2, 318 nonolfactory human GPCRs (Homo sapiens, UniProt P41231); conditions: P2RY2; C21 5 µM
T2 construct: expressed in transfected cells; host or cells: HTLA cells, transient

[6] = biological target: 318 nonolfactory human GPCRs (Homo sapiens, UniProt P47872); conditions: SCTR; C21 5 µM
[7] = biological target: 318 nonolfactory human GPCRs (Homo sapiens, UniProt P28223); conditions: HTR2A; C21 5 µM
[8] = biological target: T3, 318 nonolfactory human GPCRs (Homo sapiens, UniProt P51685); conditions: CCR8; C21 5 µM
T3 construct: expressed in transfected cells; host or cells: HTLA cells, transient

[9] = biological target: T4, 318 nonolfactory human GPCRs (Homo sapiens, UniProt Q96LB1); conditions: MRGPRX2; C21 5 µM
T4 construct: expressed in transfected cells; host or cells: HTLA cells, transient

[10] = biological target: T5, 318 nonolfactory human GPCRs (Homo sapiens, UniProt Q9BXC0); conditions: HCA1; C21 5 µM
T5 construct: expressed in transfected cells; host or cells: HTLA cells, transient

[11] = biological target: T6, 318 nonolfactory human GPCRs (Homo sapiens, UniProt P48039); conditions: MTNR1A; C21 5 µM
T6 construct: expressed in transfected cells; host or cells: HTLA cells, transient

[12] = biological target: T7, 318 nonolfactory human GPCRs (Homo sapiens, UniProt Q9BZJ7); conditions: GPR62; C21 5 µM
T7 construct: expressed in transfected cells; host or cells: HTLA cells, transient

[13] = biological target: T8, 318 nonolfactory human GPCRs (Homo sapiens, UniProt Q14416); conditions: GMR2; C21 5 µM
T8 construct: expressed in transfected cells; host or cells: HTLA cells, transient

[14] = biological target: T9, 318 nonolfactory human GPCRs (Homo sapiens, UniProt Q9BXA5); conditions: SUCNR1; C21 5 µM
T9 construct: expressed in transfected cells; host or cells: HTLA cells, transient

[15] = biological target: T10, 318 nonolfactory human GPCRs (Homo sapiens, UniProt Q8WXD0); conditions: RXFP2; C21 5 µM
T10 construct: expressed in transfected cells; host or cells: HTLA cells, transient

[16] = biological target: T11, 318 nonolfactory human GPCRs (Homo sapiens, UniProt Q969N4); conditions: TAAR8; C21 5 µM
T11 construct: expressed in transfected cells; host or cells: HTLA cells, transient

[17] = biological target: T12, 318 nonolfactory human GPCRs (Homo sapiens, UniProt P24530); conditions: EDNRB; C21 5 µM
T12 construct: expressed in transfected cells; host or cells: HTLA cells, transient

[18] = biological target: 318 nonolfactory human GPCRs (Homo sapiens, UniProt P41595); conditions: HTR2B; C21 5 µM
[19] = biological target: T13, 318 nonolfactory human GPCRs (Homo sapiens, UniProt Q9BXC1); conditions: GPR174; C21 5 µM
T13 construct: expressed in transfected cells; host or cells: HTLA cells, transient

[20] = biological target: 318 nonolfactory human GPCRs (Homo sapiens, UniProt P25103); conditions: TACR1; C21 5 µM
[21] = biological target: T14, 318 nonolfactory human GPCRs (Homo sapiens, UniProt P29274); conditions: ADORA2A; C21 5 µM
T14 construct: expressed in transfected cells; host or cells: HTLA cells, transient

[22] = biological target: T15, 318 nonolfactory human GPCRs (Homo sapiens, UniProt Q9Y2T6); conditions: GPR55; C21 5 µM
T15 construct: expressed in transfected cells; host or cells: HTLA cells, transient

[23] = biological target: T16, 318 nonolfactory human GPCRs (Homo sapiens, UniProt Q9H244); conditions: P2RY12; C21 5 µM
T16 construct: expressed in transfected cells; host or cells: HTLA cells, transient

[24] = biological target: T17, 318 nonolfactory human GPCRs (Homo sapiens, UniProt P25024); conditions: CXCR1; C21 5 µM
T17 construct: expressed in transfected cells; host or cells: HTLA cells, transient

[25] = biological target: 318 nonolfactory human GPCRs (Homo sapiens, UniProt Q15743); conditions: GPR68; C21 5 µM
[26] = biological target: T18, 318 nonolfactory human GPCRs (Homo sapiens, UniProt P25105); conditions: PTAFR; C21 5 µM
T18 construct: expressed in transfected cells; host or cells: HTLA cells, transient

[27] = biological target: T19, 318 nonolfactory human GPCRs (Homo sapiens, UniProt O95838); conditions: GLP2R; C21 5 µM
T19 construct: expressed in transfected cells; host or cells: HTLA cells, transient

[28] = biological target: T20, 318 nonolfactory human GPCRs (Homo sapiens, UniProt Q9BY21); conditions: GPR87; C21 5 µM
T20 construct: expressed in transfected cells; host or cells: HTLA cells, transient

[29] = biological target: T21, 318 nonolfactory human GPCRs (Homo sapiens, UniProt P51684); conditions: CCR6; C21 5 µM
T21 construct: expressed in transfected cells; host or cells: HTLA cells, transient

[30] = biological target: T22, 318 nonolfactory human GPCRs (Homo sapiens, UniProt Q9UJ42); conditions: GPR160; C21 5 µM
T22 construct: expressed in transfected cells; host or cells: HTLA cells, transient

[31] = biological target: 318 nonolfactory human GPCRs (Homo sapiens, UniProt P30872); conditions: SSTR1; C21 5 µM
[32] = biological target: T23, 318 nonolfactory human GPCRs (Homo sapiens, UniProt Q86SM8); conditions: MRGPRE; C21 5 µM
T23 construct: expressed in transfected cells; host or cells: HTLA cells, transient

[33] = biological target: 318 nonolfactory human GPCRs (Homo sapiens, UniProt P25021); conditions: HRH2; C21 5 µM
[34] = biological target: T24, 318 nonolfactory human GPCRs (Homo sapiens, UniProt P60893); conditions: GPR85; C21 5 µM
T24 construct: expressed in transfected cells; host or cells: HTLA cells, transient
T24 sequence (P60893 whole entry): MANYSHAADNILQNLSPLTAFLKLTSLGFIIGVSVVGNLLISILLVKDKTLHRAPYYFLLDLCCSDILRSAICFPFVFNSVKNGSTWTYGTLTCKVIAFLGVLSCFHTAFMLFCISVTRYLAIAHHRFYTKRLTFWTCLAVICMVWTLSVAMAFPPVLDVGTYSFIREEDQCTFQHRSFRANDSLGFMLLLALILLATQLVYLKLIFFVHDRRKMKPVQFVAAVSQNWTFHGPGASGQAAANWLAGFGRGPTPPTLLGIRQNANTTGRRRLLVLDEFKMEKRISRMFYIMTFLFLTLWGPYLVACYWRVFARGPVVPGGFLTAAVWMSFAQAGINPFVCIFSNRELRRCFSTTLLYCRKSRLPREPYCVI

T6 sequence (P48039 whole entry): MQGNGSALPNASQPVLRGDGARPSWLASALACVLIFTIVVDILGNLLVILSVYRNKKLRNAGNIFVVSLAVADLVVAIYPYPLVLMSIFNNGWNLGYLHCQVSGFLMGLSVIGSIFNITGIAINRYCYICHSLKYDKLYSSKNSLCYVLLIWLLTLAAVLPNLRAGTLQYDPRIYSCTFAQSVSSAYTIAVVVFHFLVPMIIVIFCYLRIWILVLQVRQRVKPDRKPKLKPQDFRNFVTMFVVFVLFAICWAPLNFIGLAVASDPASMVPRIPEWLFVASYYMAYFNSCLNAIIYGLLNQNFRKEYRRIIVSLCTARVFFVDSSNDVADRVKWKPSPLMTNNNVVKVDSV
T15 sequence (Q9Y2T6 whole entry): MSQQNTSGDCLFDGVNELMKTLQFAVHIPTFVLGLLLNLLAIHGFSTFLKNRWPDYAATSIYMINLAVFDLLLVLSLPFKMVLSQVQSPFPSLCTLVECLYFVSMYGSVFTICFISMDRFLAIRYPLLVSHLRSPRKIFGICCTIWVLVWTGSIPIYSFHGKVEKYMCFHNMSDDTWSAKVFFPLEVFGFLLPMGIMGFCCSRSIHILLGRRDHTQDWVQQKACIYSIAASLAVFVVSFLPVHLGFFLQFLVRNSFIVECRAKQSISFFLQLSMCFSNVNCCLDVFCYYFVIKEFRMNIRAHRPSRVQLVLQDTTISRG
T7 sequence (Q9BZJ7 whole entry): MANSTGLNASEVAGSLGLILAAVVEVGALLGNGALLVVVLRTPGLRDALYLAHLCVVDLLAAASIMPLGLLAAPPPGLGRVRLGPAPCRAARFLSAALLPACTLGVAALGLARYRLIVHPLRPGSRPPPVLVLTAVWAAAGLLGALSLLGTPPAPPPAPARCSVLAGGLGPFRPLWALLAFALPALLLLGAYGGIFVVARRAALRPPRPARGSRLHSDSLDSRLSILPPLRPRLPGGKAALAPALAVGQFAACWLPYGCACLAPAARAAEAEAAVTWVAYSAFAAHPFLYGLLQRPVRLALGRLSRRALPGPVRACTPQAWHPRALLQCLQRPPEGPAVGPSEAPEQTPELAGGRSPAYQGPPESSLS
T18 sequence (P25105 whole entry): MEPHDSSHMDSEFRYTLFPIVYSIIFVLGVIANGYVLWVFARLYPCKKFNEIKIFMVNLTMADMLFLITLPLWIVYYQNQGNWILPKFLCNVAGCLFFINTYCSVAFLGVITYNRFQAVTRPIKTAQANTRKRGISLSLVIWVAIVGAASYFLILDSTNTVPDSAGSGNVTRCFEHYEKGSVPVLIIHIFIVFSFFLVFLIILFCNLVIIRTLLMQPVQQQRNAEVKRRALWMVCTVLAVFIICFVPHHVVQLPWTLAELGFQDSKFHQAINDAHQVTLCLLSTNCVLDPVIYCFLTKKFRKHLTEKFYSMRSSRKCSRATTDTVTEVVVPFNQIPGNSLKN
T19 sequence (O95838 whole entry): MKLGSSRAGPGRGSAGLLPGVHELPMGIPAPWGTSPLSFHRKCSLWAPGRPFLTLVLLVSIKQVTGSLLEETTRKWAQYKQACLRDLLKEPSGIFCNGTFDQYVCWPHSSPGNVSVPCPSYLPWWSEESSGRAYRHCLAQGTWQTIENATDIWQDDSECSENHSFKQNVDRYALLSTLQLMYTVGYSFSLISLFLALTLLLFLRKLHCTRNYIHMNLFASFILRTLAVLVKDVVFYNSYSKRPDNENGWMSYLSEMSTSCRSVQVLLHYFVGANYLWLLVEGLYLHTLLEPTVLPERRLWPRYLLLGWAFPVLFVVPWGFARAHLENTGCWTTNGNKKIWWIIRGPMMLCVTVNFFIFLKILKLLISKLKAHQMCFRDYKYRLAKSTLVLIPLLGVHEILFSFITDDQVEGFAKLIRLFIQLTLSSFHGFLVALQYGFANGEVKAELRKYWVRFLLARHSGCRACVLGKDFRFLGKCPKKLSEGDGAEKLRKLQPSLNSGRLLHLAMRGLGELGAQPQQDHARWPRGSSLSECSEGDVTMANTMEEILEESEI
318 nonolfactory human GPCRs (Homo sapiens, UniProt P30872), sequence (P30872 whole entry): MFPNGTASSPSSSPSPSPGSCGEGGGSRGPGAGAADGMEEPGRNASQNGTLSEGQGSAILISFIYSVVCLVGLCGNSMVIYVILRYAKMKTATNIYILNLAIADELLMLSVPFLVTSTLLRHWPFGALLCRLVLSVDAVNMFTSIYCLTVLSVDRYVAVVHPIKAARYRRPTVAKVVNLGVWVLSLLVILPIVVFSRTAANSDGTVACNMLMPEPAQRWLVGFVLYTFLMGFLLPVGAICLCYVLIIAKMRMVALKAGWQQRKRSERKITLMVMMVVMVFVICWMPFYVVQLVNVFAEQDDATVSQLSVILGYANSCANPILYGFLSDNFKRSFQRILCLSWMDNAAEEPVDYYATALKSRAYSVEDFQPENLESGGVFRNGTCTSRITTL
T20 sequence (Q9BY21 whole entry): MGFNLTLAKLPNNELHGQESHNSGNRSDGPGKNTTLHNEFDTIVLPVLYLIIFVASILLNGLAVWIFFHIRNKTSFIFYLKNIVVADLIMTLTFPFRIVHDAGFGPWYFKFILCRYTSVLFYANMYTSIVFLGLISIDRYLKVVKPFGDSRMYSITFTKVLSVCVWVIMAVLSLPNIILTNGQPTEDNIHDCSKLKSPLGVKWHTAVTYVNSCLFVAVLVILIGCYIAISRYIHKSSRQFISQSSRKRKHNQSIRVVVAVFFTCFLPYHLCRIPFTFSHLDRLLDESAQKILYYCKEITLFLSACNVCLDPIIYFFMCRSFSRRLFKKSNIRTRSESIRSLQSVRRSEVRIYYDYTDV
T16 sequence (Q9H244 whole entry): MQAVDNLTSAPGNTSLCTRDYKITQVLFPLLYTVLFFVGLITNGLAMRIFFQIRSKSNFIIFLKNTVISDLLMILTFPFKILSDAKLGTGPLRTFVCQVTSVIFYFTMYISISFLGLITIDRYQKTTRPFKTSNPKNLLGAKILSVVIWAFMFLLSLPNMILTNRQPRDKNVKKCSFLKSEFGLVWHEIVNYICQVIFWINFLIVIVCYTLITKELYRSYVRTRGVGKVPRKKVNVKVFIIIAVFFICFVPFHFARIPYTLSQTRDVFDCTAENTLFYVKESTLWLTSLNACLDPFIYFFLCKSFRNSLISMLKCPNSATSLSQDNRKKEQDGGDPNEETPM
T17 sequence (P25024 whole entry): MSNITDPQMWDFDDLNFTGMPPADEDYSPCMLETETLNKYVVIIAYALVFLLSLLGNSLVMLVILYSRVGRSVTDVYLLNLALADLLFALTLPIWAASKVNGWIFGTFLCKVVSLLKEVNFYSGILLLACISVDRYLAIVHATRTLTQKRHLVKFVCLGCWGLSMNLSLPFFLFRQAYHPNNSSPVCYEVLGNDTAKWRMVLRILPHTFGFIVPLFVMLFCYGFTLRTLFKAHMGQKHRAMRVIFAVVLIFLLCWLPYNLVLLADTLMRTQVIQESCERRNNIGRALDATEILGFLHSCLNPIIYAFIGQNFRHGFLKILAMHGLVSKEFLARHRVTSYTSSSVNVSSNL
T2 sequence (P41231 whole entry): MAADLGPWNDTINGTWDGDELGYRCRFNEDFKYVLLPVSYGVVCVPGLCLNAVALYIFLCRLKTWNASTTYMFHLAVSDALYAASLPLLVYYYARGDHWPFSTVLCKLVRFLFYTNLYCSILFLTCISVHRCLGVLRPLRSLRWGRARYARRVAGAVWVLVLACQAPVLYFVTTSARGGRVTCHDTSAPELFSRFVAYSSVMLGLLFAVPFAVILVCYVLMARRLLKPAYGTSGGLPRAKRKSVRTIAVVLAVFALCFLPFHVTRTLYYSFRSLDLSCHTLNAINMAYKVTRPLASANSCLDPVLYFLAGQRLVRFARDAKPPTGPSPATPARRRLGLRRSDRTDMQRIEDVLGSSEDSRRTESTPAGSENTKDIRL
T14 sequence (P29274 whole entry): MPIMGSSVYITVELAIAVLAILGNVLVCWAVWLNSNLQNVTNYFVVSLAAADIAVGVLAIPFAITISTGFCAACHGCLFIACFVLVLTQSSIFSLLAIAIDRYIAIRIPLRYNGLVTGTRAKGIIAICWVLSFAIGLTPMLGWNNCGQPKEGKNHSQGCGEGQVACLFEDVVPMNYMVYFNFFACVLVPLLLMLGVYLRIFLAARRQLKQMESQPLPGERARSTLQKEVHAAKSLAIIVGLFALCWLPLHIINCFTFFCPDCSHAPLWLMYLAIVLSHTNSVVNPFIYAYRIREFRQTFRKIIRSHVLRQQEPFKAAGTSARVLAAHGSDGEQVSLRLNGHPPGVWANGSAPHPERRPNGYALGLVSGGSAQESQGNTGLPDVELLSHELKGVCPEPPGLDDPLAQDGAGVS
T5 sequence (Q9BXC0 whole entry): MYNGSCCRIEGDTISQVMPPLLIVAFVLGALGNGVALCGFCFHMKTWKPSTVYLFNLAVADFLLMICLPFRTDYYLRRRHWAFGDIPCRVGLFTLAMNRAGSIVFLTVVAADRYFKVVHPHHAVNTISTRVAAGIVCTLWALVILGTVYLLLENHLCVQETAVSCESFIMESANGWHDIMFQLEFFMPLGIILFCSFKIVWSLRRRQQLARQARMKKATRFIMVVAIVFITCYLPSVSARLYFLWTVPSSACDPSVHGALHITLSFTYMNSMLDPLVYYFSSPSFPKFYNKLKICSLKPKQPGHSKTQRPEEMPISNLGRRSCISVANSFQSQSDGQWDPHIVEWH

c1ccc2c(c1)N=C(N1CCNCC1)c1ccccc1N2 [C21, 11-(1-piperazinyl)-5H-dibenzo[b,e][1,4]diazepine]
FOLD OVER BASAL [1]: 0.6 fold and 0.9 fold and 0.8 fold
FOLD OVER BASAL [2]: 1.2 fold and 0.8 fold
FOLD OVER BASAL [3]: 1.1 fold and 0.9 fold and 1.2 fold
FOLD OVER BASAL [4]: 0.5 fold and 0.8 fold and 0.6 fold
FOLD OVER BASAL [5]: 1.4 fold and 1.2 fold and 1.3 fold and 1 fold
FOLD OVER BASAL [6]: 0.9 fold and 1 fold
FOLD OVER BASAL [7]: 0.1 fold and 0.2 fold
FOLD OVER BASAL [8]: 0.8 fold and 1.3 fold and 1.5 fold and 1.1 fold
FOLD OVER BASAL [9]: 1.3 fold and 1.6 fold and 1.5 fold
FOLD OVER BASAL [10]: 1.8 fold and 1.3 fold and 1.7 fold and 0.9 fold
FOLD OVER BASAL [11]: 1.1 fold and 0.9 fold and 1 fold
FOLD OVER BASAL [12]: 0.8 fold and 0.5 fold and 0.9 fold
FOLD OVER BASAL [13]: 1.3 fold and 1.2 fold and 0.7 fold and 1.1 fold
FOLD OVER BASAL [14]: 0.6 fold and 0.7 fold
FOLD OVER BASAL [15]: 1.1 fold and 0.9 fold
FOLD OVER BASAL [16]: 0.5 fold and 0.8 fold
FOLD OVER BASAL [17]: 0.8 fold and 1 fold and 0.5 fold and 0.7 fold
FOLD OVER BASAL [18]: 0.3 fold and 0.2 fold
FOLD OVER BASAL [19]: 0.6 fold and 0.9 fold and 0.5 fold
FOLD OVER BASAL [20]: 1.1 fold and 0.8 fold and 0.9 fold
FOLD OVER BASAL [21]: 0.6 fold and 0.7 fold and 0.5 fold and 0.4 fold
FOLD OVER BASAL [22]: 0.7 fold and 1 fold and 0.8 fold
FOLD OVER BASAL [23]: 0.6 fold and 1 fold and 0.5 fold and 0.8 fold
FOLD OVER BASAL [24]: 0.6 fold and 1 fold and 0.8 fold and 1.1 fold
FOLD OVER BASAL [25]: 0.6 fold and 1 fold and 0.8 fold
FOLD OVER BASAL [26]: 0.8 fold and 0.7 fold and 1.1 fold
FOLD OVER BASAL [27]: 0.7 fold and 0.8 fold and 0.5 fold and 0.9 fold
FOLD OVER BASAL [28]: 0.9 fold and 0.8 fold and 1 fold
FOLD OVER BASAL [29]: 1.1 fold and 1.2 fold and 1.7 fold
FOLD OVER BASAL [30]: 1.3 fold and 1 fold and 0.8 fold
FOLD OVER BASAL [31]: 1 fold and 0.6 fold and 0.8 fold
FOLD OVER BASAL [32]: 0.7 fold and 0.8 fold
FOLD OVER BASAL [33]: 1.7 fold and 1.4 fold and 1.6 fold and 1.3 fold
FOLD OVER BASAL [34]: 0.8 fold and 1.2 fold and 1 fold
